A short description of assay [1]: DPPH radical scavenging assay. To be noted: for EC50: isolated components, read-out: SC50 DPPH. On the procedure:
(§1) This assay was determined using the procedure previously reported.
For orientation: The DPPH test is a chemical assay of radical scavenging.

A short description of assay [2]: ABTS radical scavenging assay. To be noted: for EC50: isolated components, read-out: SC50 ABTS. How it is done:
as §1

The nature of assay [3]: Superoxide radical scavenging assay. As to conditions: isolated components; read-out: SC50 Superoxide. On the procedure: This assay was determined using the method previously reported.
Assay [4] in a line: Ferric reducing antioxidant power (FRAP) assay. To be noted: for FRAP (TE): isolated components, mM Trolox equivalents per gram. On the procedure:
The FRAP assay was determined using the method previously reported.

Assay [5] has as its target T1, acetylcholinesterase (AChE) (Electrophorus electricus, UniProt O42275).
T1 construct: purchased Sigma-Aldrich
Briefly: biochemical. On the procedure: The AChE inhibitory assay was performed according to the previous method, with slight modifications. First, 1 mL of DTNB (15 mM) solution, 1 mL of AChI (15 mM) solution, 1 mL of AChE (0.2 U/mL), and various concentrations of PS (50–400 μg/mL) were prepared using sodium phosphate buffer (0.1 M, pH 8.0). The reaction was started by adding 140 μL PBS, 10 μL DTNB solution, 15 μL AChE solution and 20 μL sample. The reaction mixture was incubated at 20 °C in the dark for 10 min, and 10 μL of AChI solution was added. Finally, the reaction mixture was incubated at 20 °C for 10 min, and the absorbance was measured at 405 nm.

Assay [6] deals with LPS-induced NO production in RAW264.7 macrophages. Briefly: Nitric oxide inhibitory assay. The assay is classed as cell-based, Murine. To be noted: Mus musculus. On the procedure: Murine RAW264.7 macrophages were cultured in DMEM medium containing 10% fetal bovine serum (FBS) and 1% penicillin at 37 °C, 5% CO2 [37].
The NO inhibitory assay was performed based on the reference method.

The next assay has as its system iNOS. Briefly: Western blot analysis of iNOS. To be noted: 12.5, 25, and 50 µM, LPS 100 ng/mL, RAW264.7. The assay is classed as cell-based, Murine. On the procedure: (§2) The Western blot analysis was performed using the reference method with slight modifications. RAW264.7 cells were seeded in 6 cm dishes for 24 h. The cells were treated with sample (12.5, 25, and 50 µM) and LPS (100 ng/mL). After treatment with drugs, cells were washed with cold PBS, and proteins were collected with lysis buffer containing protein inhibitors. After quantification, equal amounts of protein samples were separated using 5–8% SDS-polyacrylamide gels. The proteins were transferred to the membrane by electrophoresis. The membranes were soaked in 2% BSA blocking buffer for 2 h and then washed 2–3 times with TBST. Next, the membranes were visualized with primary antibody (iNOS, TNF-α, and IL-6) and soaked for 1 day. The next day, membranes were washed again with TBST 2–3 times and then soaked with secondary antibody for 2 h. Finally, immuno-reactivity was detected with ECL reagents, exposed with a luminometer photometer, and quantified with Image J.
For orientation: A western blot detects proteins with antibodies after separation by electrophoresis.

A further assay has as its system TNF-α. Put plainly: Western blot analysis of TNF-α. The assay is classed as cell-based, Murine. As to conditions: 12.5, 25, and 50 µM, LPS 100 ng/mL, RAW264.7. How it is done: as §2
The subject of the next assay is IL-6. Put plainly: Western blot analysis of IL-6. The assay is classed as cell-based, Murine. To be noted: 12.5, 25, and 50 µM, LPS 100 ng/mL, RAW264.7. How it is done:
as §2

Where [7] appears, read: isolated compounds, read-out: AChE IC50 (converted).
The mark [8] stands for this setting: isolated compounds, LPS-induced NO, RAW264.7, read-out: Nitric Oxide IC50.
The mark [9] stands for this setting: RAW264.7, read-out: Nitric Oxide IC50.
Where [10] appears, read: solvent extracts, concentration causing 50% free radical scavenging.

“Also recorded” adds a separate entry of the source. Where two headings read alike, the source gives them in different places.

The values below come from paper PMC9311596, “Main Bioactive Components and Their Biological Activities from Natural and Processed Rhizomes of Polygonum sibiricum” (Antioxidants, 2022).

T1 sequence (O42275 24-633): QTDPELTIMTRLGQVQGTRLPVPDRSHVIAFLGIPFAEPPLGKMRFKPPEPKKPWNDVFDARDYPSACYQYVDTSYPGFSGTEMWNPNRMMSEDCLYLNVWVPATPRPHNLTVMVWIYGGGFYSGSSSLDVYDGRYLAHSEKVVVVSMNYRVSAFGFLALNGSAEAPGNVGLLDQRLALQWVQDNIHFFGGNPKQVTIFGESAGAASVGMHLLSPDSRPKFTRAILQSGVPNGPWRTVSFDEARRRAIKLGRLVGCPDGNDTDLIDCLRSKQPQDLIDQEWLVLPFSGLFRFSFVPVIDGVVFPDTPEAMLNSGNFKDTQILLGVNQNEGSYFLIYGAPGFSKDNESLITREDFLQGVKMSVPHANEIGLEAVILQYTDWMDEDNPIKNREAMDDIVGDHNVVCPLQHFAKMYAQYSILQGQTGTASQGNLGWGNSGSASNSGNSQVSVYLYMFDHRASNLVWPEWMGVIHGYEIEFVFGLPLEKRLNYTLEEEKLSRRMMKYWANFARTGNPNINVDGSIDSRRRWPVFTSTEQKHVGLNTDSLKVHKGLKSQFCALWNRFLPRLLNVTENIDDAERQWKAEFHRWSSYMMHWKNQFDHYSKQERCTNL

`O=Cc1ccc(CO)o1` [5-HMF (1), 5-hydroxymethylfurfural]: the EC50 in assay [1], in [2] and in assay [3] was more than 400 µM each time. Moreover, the “FRAP (TE)” value in [4] is 26.70 ± 0.97 mM/g. Further, the IC50 (as a rule, the point on the concentration scale where inhibition reaches its midpoint) was 81.5 ± 11.1 µM in assay [5] (setting [7]) and 34.9 ± 8.8 µM in assay [6] (setting [8]).

Regarding `COc1cc2ccc(=O)oc2cc1O` [Scopoletin (2), scopoletin], the EC50 in [1] was more than 400 µM; in assay [2] it was 91.3 ± 3.36 µM; in assay [3] it was more than 400 µM. Moreover, in assay [4], the “FRAP (TE)” value worked out at 2892.97 ± 19.18 mM/g. In addition, the values for the concentration for half-maximal inhibition (IC50) in assay [5] and in [6] (setting [8]) were 32.4 ± 2.05 µM and 36.3 ± 4.65 µM, respectively.

For `O=C(/C=C/c1ccc(O)c(O)c1)O[C@@H]1C[C@](O)(C(=O)O)C[C@@H](O)[C@H]1O` [Chlorogenic acid, chlorogenic acid, reference compound], the concentration for half-maximal inhibition (IC50) in [5] (setting [7]) was 68.2 ± 2.9 µM; in [5] (solvent extracts, read-out: AChE IC50 (converted)) it was 65.7 µM.

In the case of `C[C@@H]1O[C@@H](OC[C@H]2O[C@@H](Oc3c(-c4ccc(O)c(O)c4)oc4cc(O)cc(O)c4c3=O)[C@H](O)[C@@H](O)[C@@H]2O)[C@H](O)[C@H](O)[C@H]1O` [Rutin (5), rutin], the EC50 in assay [1] stood at 5.6 ± 0.34 µM; in assay [2], 15.4 ± 0.25 µM; in assay [3], 175 ± 3.02 µM. For the same compound, the “FRAP (TE)” value in assay [4] was 2221.33 ± 5.02 mM/g. Besides, the IC50 worked out at 33.1 ± 5.43 µM in assay [5] and 9.89 ± 1.36 µM in [6] (setting [9]). The “inhibition of iNOS production” value in the assay on iNOS was “strongest inhibitory effect among all isolated compounds; also recorded: significantly inhibited iNOS production in a concentration-dependent manner”. Further, the “inhibition of TNF-α production” value in the assay on TNF-α is “significantly inhibited the production of TNF-α and IL-6 in a concentration-dependent manner”. Also, the “inhibition of IL-6 production” value in the assay on IL-6 is “significantly inhibited the production of TNF-α and IL-6 in a concentration-dependent manner”.

`O=c1c(O[C@@H]2O[C@H](CO)[C@H](O)[C@H](O)[C@H]2O)c(-c2ccc(O)c(O)c2)oc2cc(O)cc(O)c12` [Hyperoside (4), hyperoside]: the EC50 in [1] was 12.5 ± 4.02 µM; in assay [2], 29.3 ± 0.51 µM; in assay [3] it was 172 ± 3.8 µM. Besides, the “FRAP (TE)” value in [4] was found to be 3246.93 ± 31.92 mM/g. The IC50 was determined as 121 ± 10.7 µM in [5] and 18.9 ± 1.68 µM in assay [6] (setting [9]). Also, in the assay with iNOS, the “inhibition of iNOS production” value is reported as “significantly inhibited iNOS production in a concentration-dependent manner”. In the assay on TNF-α, the “inhibition of TNF-α production” value is “significantly inhibited the production of TNF-α and IL-6 in a concentration-dependent manner”. Moreover, in the assay with IL-6, the “inhibition of IL-6 production” value was “significantly inhibited the production of TNF-α and IL-6 in a concentration-dependent manner”.

As to `O=c1c(O[C@@H]2O[C@H](CO)[C@@H](O)[C@H](O)[C@H]2O)c(-c2ccc(O)c(O)c2)oc2cc(O)cc(O)c12` [Isoquercetin (3), isoquercetin], the EC50 in assay [1] is 12.6 ± 3.21 µM; in [2], 22.7 ± 1.17 µM; in assay [3], 180 ± 4.43 µM. The “FRAP (TE)” value in assay [4] came out at 3898.88 ± 23.23 mM/g. In addition, the IC50 in assay [5] came to 23.1 ± 3.15 µM; in assay [6] (setting [9]), 17 ± 1.28 µM. Moreover, the “inhibition of iNOS production” value in the assay on iNOS is given as “significantly inhibited iNOS production in a concentration-dependent manner”. Further, the “inhibition of TNF-α production” value in the assay with TNF-α was “significantly inhibited the production of TNF-α and IL-6 in a concentration-dependent manner”. Also, in the assay with IL-6, the “inhibition of IL-6 production” value was “significantly inhibited the production of TNF-α and IL-6 in a concentration-dependent manner”.

For `O=c1c(O)c(-c2ccc(O)c(O)c2)oc2cc(O)cc(O)c12` [Quercetin, quercetin, reference compound], the half-maximal inhibitory concentration (IC50) in assay [6] (setting [8]) was 18.3 ± 0.54 µM; in assay [6] (solvent extracts, LPS-induced NO, RAW264.7, read-out: Nitric Oxide IC50), 7.52 ± 0.25 µg/mL.

As to `Cc1cc(C(C)(C)C)c(O)c(C(C)(C)C)c1` [BHT, Butylated hydroxytoluene, reference compound], the EC50 was determined as 192 ± 8.94 µM in [1] and 100 ± 7.26 µM in assay [2]. Also, in [1] (setting [10]), the “SC50 DPPH” value was found to be 35.54 ± 0.64 µg/mL. In addition, in [2] (setting [10]), the “SC50 ABTS” value is 20.57 ± 0.22 µg/mL. Besides, in assay [4], the “FRAP (TE)” value is recorded as 2896.93 ± 21.19 mM/g. In [4] (solvent extracts, mM Trolox equivalents per gram of fresh extract), the “TE FRAP” value was determined as 3005.93 ± 13.10 mM/g.
